Source: patent US8688427B2, “Enzyme catalysts for diels-alder reactions” (University of Washington, priority 2008, dated 2014)
Positions count from the first letter of the chain named. In names and notes the source's numbering stands. Like-named read-outs stand apart in the source and are kept apart here.

Key:
[1] = system: Diels-Alderase DA_20_00, computational design on Loligo vulgaris diisopropylfluorophosphatase scaffold (PDB-ID 1E1A, SEQ ID NO:2), SEQ ID NO:4; assay: Kinetics of Diels-Alder reaction catalysed by original design DA_20_00; assay type: biochemical; conditions: 298K, PBS, error = 95% confidence interval
Method: (§1) The Diels-Alder reactions were performed in PBS, at 25° C., with 4% DMSO. The DMSO came from the diene, for which the stock solution (100 mM) was made in DMSO and always diluted such that the final reaction would contain 4% DMSO. After incubation of the desired amount of diene and dienophile in the presence or absence of the protein, time points were taken of the reaction (5 μL) and quenched in a solution of 80:20 acetonitrile:water with 0.1% formic acid and 1 mM Benzoic Acid (95 μL). This reaction was incubated for 5 minutes and then the precipitated protein filtered using a Millipore multiscreen solvinert filter plate (Product Number: MSRLN0450). 20 μL of the filtered quench solution was then injected and analyzed using a liquid chromatography-tandem mass spectroscopy (LC-MSMS) assay.
This active design (DA—20—00) was created from a 6-bladed beta barrel propeller scaffold (PDB-ID 1E1A; a diisopropylfluorophosphatase from Loligo vulgaris). […]
The errors represent the calculated 95% confidence interval. The parameter a describes the cooperativity of binding between the two substrates: a value greater than one indicates negative cooperativity, whereas a value lower then one indicates positive cooperativity. α could not be determined for DA—20—00. […]

[2] = system: Diels-Alderase DA_20_10, variant of DA_20_00 (Loligo vulgaris diisopropylfluorophosphatase scaffold, SEQ ID NO:2) with A21T/A74I/S271A/A173C/Q149R/A272N, SEQ …; assay: Kinetics of Diels-Alder reaction catalysed by optimized DA_20_10; assay type: biochemical; conditions: 298K
Method: (A) Dependence of reaction velocity on diene concentration for different fixed dienophile concentrations. The diene concentration was varied from 3.0 to 0.18 mM with a fixed concentration of 100 mM (⋄), 66 mM (Δ), 44 mM (⋄), 30 mM (◯), 20 mM (◯), or 13 mM (●) dienophile (B) Dependence of reaction velocity on dienophile concentration for different fixed diene concentrations. The dienophile was varied from 100 to 13.0 mM with a fixed concentration of 3 mM (♦), 2 mM (▴), 1.3 mM (∇), 0.9 mM (Δ), 0.6 mM (⋄), 0.4 mM (□), 0.26 mM (◯), or 0.18 mM (●) […]. Reactions were carried out with 20 μM protein in PBS at 298 K.
as §1
To summarize the optimization rounds, residues contacting the transition state in DA—20—00 were mutated individually to sets of residues predicted to retain or improve transition state binding and bolster the two catalytic residues. […] Three of the mutations (FIG. 6C) likely improve the packing around the transition state (A741, A21 T) or catalytic glutamine (A173C). Two of the mutations likely improve the overall electrostatic complementarity with the bound substrates and transition state: Q149R hydrogen bonds to the carboxylate on the diene and S271A makes the dienophile environment more non polar.
The kinetics of the DA—20—10 catalyzed reaction was characterized by measuring the dependence of the reaction velocity on the concentration of both diene and dienophile. The effective molarity (kcat/kuncat) of DA—20—10 is 100 M, and the rate enhancement (kcat/(kuncat*KM_diene)) in the presence of saturating dienophile and limiting diene is 1.0×10^5. At high substrate concentrations DA—20—10 proceeds for more than 30 turnovers before the enzyme loses activity. At higher enzyme concentrations more than 80% of the diene substrate is converted to product.
The errors represent the calculated 95% confidence interval. The parameter a describes the cooperativity of binding between the two substrates: a value greater than one indicates negative cooperativity, whereas a value lower then one indicates positive cooperativity. α could not be determined for DA—20—00. Kinetic parameters for catalytic antibodies 7D4 and 4D5 were taken from (10, 17).

[3] = system: catalytic antibody mAb 7D4; conditions: 310K, cited from earlier work
[4] = system: catalytic antibody mAb 4D5; conditions: 310K, cited from earlier work
catalytic antibody 1E9 = conditions: with N-ethyl maleimide as second substrate; cited from earlier work
[5] = Production run and effects of knocking out the catalytic residues; assay type: biochemical; conditions: for decrease of catalytic activity on mutation of a catalytic residue of DA_20_10: relative to DA_20_10
Method: The reaction was carried out in 1 mM diene, 50 mM dienophile, 200 μM enzyme, in PBS at 298K. The proteins assayed are DA—20—10 (υ), Y121F (▴), Q195E (x), and tela scaffold (*), uncatalyzed (λ).
To determine whether the observed activity depends on the designed active site, we investigated the contributions of the designed catalytic residues in DA—20—10 to catalysis. Glutamine 195 was mutated into a glutamate (Q195E) and tyrosine 121 was mutated into a phenylalanine (Y121F). We had originally incorporated a glutamine rather than a glutamate at this position, despite the fact that the carboxylate should make a stronger hydrogen bond with the diene carbamate. This hydrogen bond should increase the energy of the diene HOMO (and thus decrease the energy gap with the dienophile LUMO), and more greatly stabilize the transition state. However, we were concerned that the substantial free energy cost of desolvating the carboxylate would considerably reduce binding affinity for the diene. […] The Y121F mutation decreases catalytic activity by 27-fold, consistent with the removal of a hydrogen bond that contributes to dienophile binding, stabilizes the dienophile LUMO, and is enhanced in the transition state.
Timepoints were taken and measured as previously described over a period of 60 hours.

[6] = Diels-Alder activity assay with purified protein, LC-MSMS product detection; assay type: biochemical; conditions: PBS
Method: The observed velocity for each mutant was normalized by the velocity of DA—20—00 in order to determine the effective rate enhancement conferred by each mutation. The reactions were done at 1 mM diene, and 10 mM dienophile, PBS, 298K, and 100 μM protein.
Mutations showing enhanced activity on DA—20—04 were sequenced, grown large scale, and assayed. The assay was done at 0.1 mM dieine, 3 mM dienophile, PBS, 298K, and 20 μM protein.
as §1
A total of 43 variants were assayed using the standard activity assay. The observed activities are described in Table 2. In Table 2, the Expression column provides the number of times the mutant was expressed; the Observed column reports the raw signal level out of the mass-spec for the product (the Observed column is not normalized nor background corrected); the Concentration column provides the concentration of the protein after large-scale expression. […]

[7] = Plate assay of crude cell lysate, second round of active site optimization; assay type: biochemical; conditions: Mutations Recombined; single mutations on DA_20_04; Neg_Control 0, Pos_Control 1
Method: Since it was unreasonable to prepare the 176 enzyme variants in large scale, a plate assay was developed in which colonies directly from a Kunkel mutagenesis (8) reaction could be screened. Kunkel mutagenesis reactions were transformed directly into BL21(DE3)™ (Invitrogen) in order to generate each of the desired mutants. Four colonies from each plated reaction was picked and grown at 37° C. in 0.5 mL of LB-Kanamycin overnight. […]. This culture was grown for 2-3 hours at 37° C., after which 50 μL of 10 mM IPTG was added to each well (0.5 mM Final) in order to induce expression. The cells were then grown for 24 hours at 18° C., harvested, and stored at −20° C. until ready for assaying. To assay, crude cell lysate was prepared by resuspending the cells in 500 uL of PBS and lysing through 3 freeze/thaw cycles (15 minutes at −80° C., 40 minutes at 25° C.), followed by centrifugation at 4000 rpm for 30 minutes. […] Samples from each reaction were then quenched and product detected using a liquid chromatography-tandem mass spectroscopy.
To help remove some of this noise, samples showing WT activity were discarded if at least 2 of the other colonies picked from that Kunkel reaction did show an effect on activity (either greater or less than WT). […] The relative effect of each mutation was calculated. […]

C=C/C=C/NC(=O)OCc1ccc(C(=O)O)cc1 [diene, 4-carboxybenzyl trans-1,3-butadiene-1-carbamate]
kcat ([1]; diene + dienophile reaction): 2.8e-06 ± 5.6e-07 s⁻¹
Km ([1]; read-out: KM-diene): 3530 ± 1500 µM
kcat ([2]; PBS, 20 μM protein, diene + dienophile reaction, error = 95% confidence interval): 0.000678 ± 8.3e-05 s⁻¹
Km ([2]; PBS, 20 μM protein, error = 95% confidence interval, read-out: KM-diene): 980 ± 200 µM
a (cooperativity of binding between the two substrates) ([2]; diene and dienophile, >1 indicates negative cooperativity): 1.7 ± 0.7
effective molarity (kcat/kuncat) ([2]; diene + dienophile reaction): 100 M
kcat ([3]; diene + dienophile reaction): 5.83e-05 s⁻¹
a (cooperativity of binding between the two substrates) ([3]; diene and dienophile): 1
Km ([3]; read-out: KM-diene): 960 µM
kcat ([4]; diene + dienophile reaction): 5.83e-05 s⁻¹
a (cooperativity of binding between the two substrates) ([4]; diene and dienophile): 1
Km ([4]; read-out: KM-diene): 1600 µM

C=CC(=O)N(C)C [dienophile, N,N-dimethylacrylamide]
Km ([2]; PBS, 20 μM protein, error = 95% confidence interval, read-out: KM-dienophile): 58100 ± 14000 µM
Km ([3]; read-out: KM-dienophile): 1700 µM
Km ([4]; read-out: KM-dienophile): 5900 µM

O=S1(=O)C(Cl)=C(Cl)C(Cl)=C1Cl [tetrachlorothiophene dioxide]
catalytic proficiency (catalytic antibody 1E9): 10^7 M^−1
effective molarity (catalytic antibody 1E9): 10^3 M

B1: wild-type scaffold: diisopropylfluorophosphatase from Loligo vulgaris (PDB-ID 1E1A) (protein, listed as Loligo vulgaris)
chain: MEIPVIEPLFTKVTEDIPGAEGPVFDKNGDFYIVAPEVEVNGKPAGEILRIDLKTGKKTVICKPEVNGYGGIPAGCQCDRDANQLFVADMRLGLLVVQTDGTFEEIAKKDSEGRRMQGCNDCAFDYEGNLWITAPAGEVAPADYTRSMQEKFGSIYCFTTDGQMIQVDTAFQFPNGIAVRHMNDGRPYQLIVAETPTKKLWSYDIKGPAKIENKKVWGHIPGTHEGGADGMDFDEDNNLLVANWGSSHIEVFGPDGGQPKMRIRCPFEKPSNLHFKPQTKTIFVTEHENNAVWKFEWQRNGKKQYCETLKFGIF
activity (in words) [5]: did not show any measurable activity

B2: DA_20_00: original Diels-Alder enzyme design on diisopropylfluorophosphatase scaffold (PDB-ID 1E1A) (protein)
chain: MEIPVIEPLFTKVTEDIPGAAGPVFDKNGDFYIVAPYVEVNGKPAGEILRIDLKTGKKTVICKPEVNGYGGIPAGCQCDRDANQLFVADMRLGLLVVQTDGTFEEIAKKDSEGRRMQGCAYCAFDYEGNLWITAPAGEVAPADFTISLQEKFGSIYCFTTDGQMIQVDTAFQAPAGIAVRHMNDGRPYQLIVAEQPTKKLWSYDIKGPAKIENKKVWGHIPGTHKGGAAGMDFDEDNNLLVANWGSSHIEVFGPDGGQPKMRIRCPFEKPSALHFKPQTKTIFVTEHENNAVWKFEWQRNGKKQYCETLKFGIFGSLEHHHHHH
modifications: Enzyme catalyst for Diels-Alder reaction
activity versus background reaction (in words) ([6]; 25° C., 4% DMSO): increased activity over the background reaction

B3: DA_20_04: DA_20_00 triple mutant A21T, A74I, S271A (protein)
chain: B2 chain with A21T, A74I, S271A
modifications: Enzyme catalyst for Diels-Alder reaction
notes: DA_20_00 triple mutant A21T, A74I, S271A
product formed per hour ([6]; 0.1 mM diene, 3 mM dienophile, 298K, 20 μM protein): 21.9 nM of product/hour
rate enhancement over DA_20_00 (velocity normalized by velocity of DA_20_00) ([6]; 1 mM diene, 10 mM dienophile, 298K, 100 μM protein): 20.5 fold
Effect on [7]: 1

B4: Q195E: DA_20_10 with glutamine 195 mutated into a glutamate (protein)
chain: B2 chain with Q195E
decrease of catalytic activity on mutation of a catalytic residue of DA_20_10 [5]: 450 fold

B5: Y121F: DA_20_10 with tyrosine 121 mutated into a phenylalanine (protein)
chain: B2 chain with Y121F
decrease of catalytic activity on mutation of a catalytic residue of DA_20_10 [5]: 27 fold
